Results taken from patent US8916702B2 (priority 2012, dated 2014).
Where two headings read alike, the source gives them in different places.

System: HCV pseudoparticles (genotype 1a HCV E1 and E2 envelope, H77C isolate)
Assay: microbe, parasite or virus in culture
Format: cell-based
[1] = Hepatitis C virus, Huh-7, read-out: Activity (EC50 class), HCV pseudoparticles (genotype 1a, H77C) in Huh7 cells, EC50 expressed as class A/B
[2] = Hepatitis C virus, Huh-7, 48 h, HCV pseudoparticles (genotype 1a, H77C) in Huh7 cells, average of duplicate, luciferase 2 days after infection
[3] = Hepatitis C virus, Huh-7, 48 h, read-out: Activity (EC50 class), HCV pseudoparticle infection of Huh7 cells, luciferase 2 days after infection, EC50 expressed as class A/B
[4] = Hepatitis C virus, Huh-7, 48 h, read-out: Activity (EC50 class), HCV pseudoparticles, Huh7 cells, luciferase 2 days after infection, average of duplicates
[5] = Hepatitis C virus, Huh-7, 48 h, HCV pseudoparticle infection of Huh7 cells, luciferase 2 days after infection, average of duplicates

| SMILES | EC50 [1] [nM] | EC50 [3] [nM] | other results |
| --- | --- | --- | --- |
| COC(=O)[C@H](CCNC(=O)C(=O)Nc1ccc(-c2nncn2C)cc1)NC(=O)c1ccc(Nc2nc(NC3(c4ccc(Cl)cc4)CC3)nc(OCC(F)(F)F)n2)cc1 [Compound 3317] | 0.01 to 10 | – | – |
| Cc1ccc(NC(=O)C(=O)NCCCCNC(=O)c2ccc(Nc3nc(NC4(c5ccc(Cl)cc5)CC4)nc(OCC(F)(F)F)n3)cc2)cc1 [Compound 3393] | 0.01 to 10 | – | – |
| Cc1cc(NC(=O)C(=O)N2CCCC(CNC(=O)c3ccc(Nc4nc(NC5(c6ccc(Cl)cc6)CC5)nc(OCC(F)(F)F)n4)cc3)C2)no1 (stereo not shown) [Compound 3486] | 0.01 to 10 | – | EC50 [2]: 0.32 nM |
| COC(=O)[C@H](CCNC(=O)C(=O)NC(CCO)C1CC1)NC(=O)c1ccc(Nc2nc(NC3(c4ccc(Cl)cc4)CC3)nc(OCC(F)(F)F)n2)cc1 (stereo partly shown) [Compound 1391] | – | 0.01 to 10 | – |
| COC(=O)[C@H](CCNC(=O)C(=O)Nc1ccc(C)cc1)NC(=O)c1ccc(Nc2nc(NC3(c4ccc(Cl)cc4)CC3)nc(OCC(F)(F)F)n2)cc1 [Compound 3217] | – | – | EC50 (HCV pseudoparticles (genotype 1a, H77C) in Huh7 cells, average of duplicate, luciferase 2 days after infection): 0.087 nM; EC50 (read-out: Activity (EC50 class), HCV pseudoparticles (genotype 1a, H77C) in Huh7 cells, EC50 expressed as class A/B): 0.01 to 10 nM |
| COC(=O)/C(CCNC(=O)C(=O)Nc1cccc(C(C)(C)C)c1)=N\C(=O)c1ccc(Nc2nc(NC3(c4ccc(Cl)cc4)CC3)nc(OCC(F)(F)F)n2)cc1 [Compound 3586] | 0.01 to 10 | – | – |
| CC(C)(CNC(=O)C(=O)Nc1ccc(CCCC(=O)O)cc1)CNC(=O)c1ccc(Nc2nc(NC3(c4ccc(Cl)cc4)CC3)nc(OCC(F)(F)F)n2)cc1 [Compound 3361] | 0.01 to 10 | – | EC50 [2]: 0.16 nM |
| COC(=O)[C@H](CNC(=O)C(=O)Nc1cccc(OCc2ccccc2)c1)NC(=O)c1ccc(Nc2nc(NC3(c4ccc(Cl)cc4)CC3)nc(OCC(F)(F)F)n2)cc1 [Compound 3686] | – | – | EC50 [4]: 0.01 to 10 nM |
| COc1ccccc1CNC(=O)C(=O)NC[C@H](NC(=O)c1ccc(Nc2nc(NC3(c4ccc(Cl)cc4)CC3)nc(OCC(F)(F)F)n2)cc1)C(=O)O [Compound 1165] | – | 0.01 to 10 | – |
| CS(=O)(=O)c1cccc(NC(=O)C(=O)NCC[C@H](NC(=O)c2ccc(Nc3nc(NC4(c5ccc(Cl)cc5)CC4)nc(OCC(F)(F)F)n3)cc2)C(=O)O)c1 [Compound 3632] | – | – | EC50 [4]: 0.01 to 10 nM |
| Cn1cnnc1-c1ccc(NC(=O)C(=O)NCCC(NC(=O)c2ccc(Nc3nc(NC4(c5ccc(Cl)cc5)CC4)nc(OCC(F)(F)F)n3)cc2)C(=O)O)cc1 (stereo not shown) [Compound 3538] | 10 to 1000 | – | – |
| COC(=O)/C(CCNC(=O)C(=O)Nc1cccc(-c2csc(C)n2)c1)=N\C(=O)c1ccc(Nc2nc(NC3(c4ccc(Cl)cc4)CC3)nc(OCC(F)(F)F)n2)cc1 [Compound 3596] | 0.01 to 10 | – | – |
| COC(=O)[C@H](CNC(=O)C(=O)NCCc1ccc(OC)cc1)NC(=O)c1ccc(Nc2nc(NC3(c4ccc(Cl)cc4)CC3)nc(OCC(F)(F)F)n2)cc1 [Compound 1287] | – | 0.01 to 10 | – |
| COc1ccc(CNC(=O)C(=O)NC[C@H](NC(=O)c2ccc(Nc3nc(NC4(c5ccc(Cl)cc5)CC4)nc(OCC(F)(F)F)n3)cc2)C(=O)O)cc1OC [Compound 1176] | – | 0.01 to 10 | – |
| COC(=O)/C(CCNC(=O)C(=O)NC1CCCC(S(=O)(=O)c2ccccc2)C1)=N\C(=O)c1ccc(Nc2nc(NC3(c4ccc(Cl)cc4)CC3)nc(OCC(F)(F)F)n2)cc1 (stereo not shown) [Compound 3584] | 10 to 1000 | – | – |
| COC(=O)[C@H](CNC(=O)C(=O)Nc1ccc(CNC(N)=O)cc1)NC(=O)c1ccc(Nc2nc(NC3(c4ccc(Cl)cc4)CC3)nc(OCC(F)(F)F)n2)cc1 [Compound 3197] | 0.01 to 10 | – | – |
| COC(=O)[C@H](CNC(=O)C(=O)Nc1ccc(N2CCOCC2)nc1)NC(=O)c1ccc(Nc2nc(NC3(c4ccc(Cl)cc4)CC3)nc(OCC(F)(F)F)n2)cc1 [Compound 3703] | – | – | EC50 (Hepatitis C virus, Huh-7, 48 h, HCV pseudoparticles, Huh7 cells, luciferase 2 days after infection, average of duplicates): 1.33 nM; EC50 [4]: 0.01 to 10 nM |
| CC(C)(CNC(=O)C(=O)NS(=O)(=O)c1ccccc1)CNC(=O)c1ccc(Nc2nc(NC3(c4ccc(Cl)cc4)CC3)nc(OCC(F)(F)F)n2)cc1 [Compound 3021] | 0.01 to 10 | – | EC50 [2]: 0.73 nM |
| CC(C)(CNC(=O)C(=O)Nc1ccc(C(=O)N2CCCCC2)cc1)CNC(=O)c1ccc(Nc2nc(NC3(c4ccc(Cl)cc4)CC3)nc(OCC(F)(F)F)n2)cc1 [Compound 1568] | – | 0.01 to 10 | – |
| Cc1ccc(NC(=O)C(=O)NC/C(=N/C(=O)c2ccc(Nc3nc(NC4(c5ccc(Cl)cc5)CC4)nc(OCC(F)(F)F)n3)cc2)C(=O)O)cc1 [Compound 3153] | 0.01 to 10 | – | – |
| CC(=O)c1ccccc1NC(=O)C(=O)NCC(C)(C)CNC(=O)c1ccc(Nc2nc(NC3(c4ccc(Cl)cc4)CC3)nc(OCC(F)(F)F)n2)cc1 [Compound 3377] | 0.01 to 10 | – | – |
| CN(CCCN(C)C(=O)c1ccc(Nc2nc(NC3(c4ccc(Cl)cc4)CC3)nc(OCC(F)(F)F)n2)cc1)C(=O)C(=O)N1CCCCC1 [Compound 3432] | 10 to 1000 | – | – |

| SMILES | EC50 [1] [nM] | EC50 [3] [nM] | other results |
| --- | --- | --- | --- |
| CC(C)(CNC(=O)C(=O)Nc1nc2c(Cl)ccc(Cl)c2s1)CNC(=O)c1ccc(Nc2nc(NC3(c4ccc(Cl)cc4)CC3)nc(OCC(F)(F)F)n2)cc1 [Compound 3837] | – | – | EC50 [4]: 0.01 to 10 nM |
| O=C(NCCNC(=O)c1ccc(Nc2nc(NC3(c4ccc(Cl)cc4)CC3)nc(OCC(F)(F)F)n2)cc1)C(=O)Nc1cccc(F)c1 [Compound 3369] | 0.01 to 10 | – | – |
| Cn1nnnc1-c1cccc(NC(=O)C(=O)NCC[C@H](NC(=O)c2ccc(Nc3nc(NC4(c5ccc(Cl)cc5)CC4)nc(OCC(F)(F)F)n3)cc2)C(=O)O)c1 [Compound 3655] | – | – | EC50 [4]: 0.01 to 10 nM |
| CC1CN(c2ccc(NC(=O)C(=O)NC/C(=N/C(=O)c3ccc(Nc4nc(NC5(c6ccc(Cl)cc6)CC5)nc(OCC(F)(F)F)n4)cc3)C(=O)O)cc2)CC(C)N1 (stereo not shown) [Compound 3160] | 0.01 to 10 | – | – |
| Cc1nccn1-c1ccc(NC(=O)C(=O)NC[C@H](NC(=O)c2ccc(Nc3nc(NC4(c5ccc(Cl)cc5)CC4)nc(OCC(F)(F)F)n3)cc2)C(=O)O)cc1 [Compound 3286] | 0.01 to 10 | – | – |
| Cc1cc(C)n(CC2(CNC(=O)C(=O)NCC[C@H](NC(=O)c3ccc(Nc4nc(NC5(c6ccc(Cl)cc6)CC5)nc(OCC(F)(F)F)n4)cc3)C(=O)O)CC2)n1 [Compound 1427] | – | 0.01 to 10 | – |
| O=C(NCCc1cccc(F)c1)C(=O)NCC[C@H](NC(=O)c1ccc(Nc2nc(NC3(c4ccc(Cl)cc4)CC3)nc(OCC(F)(F)F)n2)cc1)C(=O)O [Compound 1333] | – | 0.01 to 10 | – |
| O=C(NCC1CC1)C(=O)NC[C@H](NC(=O)c1ccc(Nc2nc(NC3(c4ccc(Cl)cc4)CC3)nc(OCC(F)(F)F)n2)cc1)C(=O)O [Compound 1467] | – | 0.01 to 10 | – |
| CC(C)(CNC(=O)C(=O)Nc1nc2c(Cl)cccc2s1)CNC(=O)c1ccc(Nc2nc(NC3(c4ccc(Cl)cc4)CC3)nc(OCC(F)(F)F)n2)cc1 [Compound 3815] | – | – | EC50 [4]: 0.01 to 10 nM |
| COC(=O)[C@@H](CCNC(=O)C(=O)Nc1cccc(C(=O)c2ccccc2)c1)NC(=O)c1ccc(Nc2nc(NC3(c4ccc(Cl)cc4)CC3)nc(OCC(F)(F)F)n2)cc1 [Compound 3576] | 0.01 to 10 | – | – |
| CCc1nccn1CC1(CNC(=O)C(=O)NCC[C@@H](NC(=O)c2ccc(Nc3nc(NC4(c5ccc(Cl)cc5)CC4)nc(OCC(F)(F)F)n3)cc2)C(=O)OC)CC1 [Compound 1386] | – | 0.01 to 10 | EC50 [5]: 2.76 nM |
| CCC1CCC(NC(=O)C(=O)NCC[C@H](NC(=O)c2ccc(Nc3nc(NC4(c5ccc(Cl)cc5)CC4)nc(OCC(F)(F)F)n3)cc2)C(=O)OC)CC1 (stereo partly shown) [Compound 1103] | – | 0.01 to 10 | – |
| COC(=O)[C@H](CNC(=O)C(=O)NCc1ccc(OC)cc1OC)NC(=O)c1ccc(Nc2nc(NC3(c4ccc(Cl)cc4)CC3)nc(OCC(F)(F)F)n2)cc1 [Compound 1137] | – | 0.01 to 10 | – |
| CC(C)(CNC(=O)C(N)=O)CNC(=O)c1ccc(Nc2nc(NC3(c4ccc(Cl)cc4)CC3)nc(OCC(F)(F)F)n2)cc1F [Compound 3388, N^1-(3-(4-((4-((1-(4-chlorophenyl)cyclopropyl)amino)-6-(2,2,2-trifluoroethoxy)-1,3,5-triazin-2-yl)amino)-2-fluorobenzamido)-2,2-dimethylpropyl)oxalamide] | 0.01 to 10 | – | EC50 [2]: 0.013 nM |
| CNS(=O)(=O)c1cccc(NC(=O)C(=O)NC[C@H](NC(=O)c2ccc(Nc3nc(NC4(c5ccc(Cl)cc5)CC4)nc(OCC(F)(F)F)n3)cc2)C(=O)Cl)c1 [Compound 3782] | – | – | EC50 [4]: 0.01 to 10 nM |
| Cc1ccccc1-c1ccc(NC(=O)C(=O)NCCC(NC(=O)c2ccc(Nc3nc(NC4(c5ccc(Cl)cc5)CC4)nc(OCC(F)(F)F)n3)cc2)C(=O)O)cc1 (stereo not shown) [Compound 3525] | 10 to 1000 | – | – |
| CC(C)(CNC(=O)C(=O)NCC1(CN2CCCC2)CC1)CNC(=O)c1ccc(Nc2nc(NC3(c4ccc(Cl)cc4)CC3)nc(OCC(F)(F)F)n2)cc1 [Compound 1036] | – | 0.01 to 10 | – |
| CC(C)(CNC(=O)C(N)=O)CNC(=O)c1ccc(Nc2nc(NC3(c4ccc(Cl)cc4)CC3)nc(OCC(F)(F)F)n2)cc1O [Compound 3389] | 0.01 to 10 | – | – |
| O=C(NCc1cc(F)ccc1F)C(=O)NC[C@H](NC(=O)c1ccc(Nc2nc(NC3(c4ccc(Cl)cc4)CC3)nc(OCC(F)(F)F)n2)cc1)C(=O)O [Compound 1169] | – | 0.01 to 10 | – |
| COC(=O)[C@H](CCNC(=O)C(N)=O)NC(=O)c1ccc(Nc2nc(NC3(c4ccc(Cl)cc4)CC3)nc(OCC(F)(F)F)n2)cc1 [Compound 1009, (S)-methyl 4-(2-amino-2-oxoacetamido)-2-(4-(4-(1-(4-chlorophenyl)cyclopropylamino)-6-(2,2,2-trifluoroethoxy)-1,3,5-triazin-2-ylamino)benzamido)butanoate] | – | 0.01 to 10 | – |
| CC(C)(CNC(=O)C(=O)NCc1ccc(C(=O)c2ccccc2)cc1)CNC(=O)c1ccc(Nc2nc(NC3(c4ccc(Cl)cc4)CC3)nc(OCC(F)(F)F)n2)cc1 [Compound 3404] | 0.01 to 10 | – | – |
| CC(C)(CNC(=O)C(=O)Nc1ccc2c(c1)Cc1ccccc1-2)CNC(=O)c1ccc(Nc2nc(NC3(c4ccc(Cl)cc4)CC3)nc(OCC(F)(F)F)n2)cc1 [Compound 1570] | – | 0.01 to 10 | EC50 [5]: 0.05 nM |
